The text below walks through data of US10183936B2, “Hepatitis B core protein allosteric modulators” (priority 2014, dated 2019).

SMILES strings stand for the structures.

Data set [1] concerns HBV viral production in AD38 cells. In words: Viral load production in AD38 cells by quantitative PCR of the HBV core sequence in supernatant. Type of data set: cell-based. As to conditions: Hepatitis B virus, 144 h; 10 μM compound, 6 days at 37° C., viral load in supernatant compared against DMSO control wells; read-out: AD38 Viral Load (CpAM/DMSO %) at 10 μM. The protocol: (§1) Example 56: Assay Measuring Activity of Compounds on Viral Production in and on Viability of AD38 Cells
(§2) AD38 cells were then re-suspended with 10 mL of Treatment Medium and counted. Wells of a collagen coated 96-well NUNC microtiter plate were seeded at 50,000/well in 180 μL of Treatment Medium, and 20 μL of in treatment media with either 10% DMSO (Control) or a 10× solution of compound in 10% DMSO was added. Plates were incubated for 6 days at 37° C.
Viral load production was assayed by quantitative PCR of the core sequence. Briefly, 5 μL of clarified supematant was added to a PCR reaction mixture that contained forward primers HBV-f 5′-CTGTGCCTTGGGTGGCTTT-3′, Reverse primers HBV-r 5′-[…]-3′ and Fluorescent TaqMan™ Probes HBV-probe 5′-FAM/AGCTCCAAA/ZEN/[…]/3IABkFQ-3′ in Quanta Biosciences PerfeCTa® qPCR Toughmix®, and was subsequently on an Applied Biosystems VIIA7 in a final volume of 20 μL. The PCR mixture was incubated at 45° C. for 5 minutes, then 95° C. for 10 min, followed by 40 cycles of 10 seconds at 95° C. and 20 seconds at 60° C. Viral load was quantitated against known standards by using ViiA™ 7 Software. Viral load in the supematant from wells with treated cells were compared against viral load in supernatant from DMSO control wells (≥3 per plate).

The subject of data set [2] is AD38 cells. In words: Viability of AD38 cells (Promega CellTiter-Glo) at the end of compound treatment. The data set is classed as cell-based. As to conditions: 10 μM compound, 6 days, luminescence normalized against DMSO control wells (controls being 100%). The protocol: as §1, §2
At the end of compound treatment period cell viability was assessed using a Promega CellTiter-Glo protocol. All supernatant was removed the previously treated 96-well microtiter plate, and 50 μL Tetracycline-free treatment medium (DMEM/F12 (1:1), lx Pen/step (cat#: 30-002-CL, Mediatech, Inc), with 2% FBS, Tet-system approved (cat#: 631106, Clontech), and 1% DMSO was added back to each well. Another 50 μL of CellTiter-Glo reagent solution (Promega, G7573) was then added at room temperature and the contents mixed for 2 minutes on an orbital shaker to induce cell lysis. This was followed by incubation at room temperature for 10 minutes to stabilize the luminescent signal. The luminescence was recorded for 0.2 seconds per well on a Tecan multimode platereader (Infinite M1000 pro). The luminescent signal from each well was normalized against that of untreated (DMSO) control wells. All results were reported percent viability (with controls being 100%).

As to `NS(=O)(=O)c1ccc(CCNC(=O)c2ccc3c(c2)NC(=O)c2ccccc2S3)cc1` [Compound 1101], the activity at 10 µM in data set [1] was found to be 15%. Further, the “AD38 Viability Normalized Result (CPAM/DMSO %) at 10 μM” value in data set [2] came out at 107%.
As to `CN(C)S(=O)(=O)c1ccc(CCNC(=O)c2ccc3c(c2)NC(=O)c2ccccc2S3)cc1` [Compound 1102], the activity at 10 µM in data set [1] is 1%. Also, in data set [2], the “AD38 Viability Normalized Result (CPAM/DMSO %) at 10 μM” value was determined as 100%.
On the same counts, the results for `CS(=O)(=O)c1ccc(CCNC(=O)c2ccc3c(c2)NC(=O)c2ccccc2S3)cc1` [Compound 1103] are 2% and 87%.
Taken in the same sequence, the figures for `O=C(NCCc1ccccc1)c1ccc2c(c1)NC(=O)c1ccccc1S2` [Compound 1104] were 1% and 85%.
Taken in the same sequence, the figures for `O=C(NCCC1CCCCC1)c1ccc2c(c1)NC(=O)c1ccccc1S2` [Compound 1105] were 1% and 101%.
As for `O=C(NCc1ccccc1)c1ccc2c(c1)NC(=O)c1ccccc1S2` [Compound 1107], the activity at 10 µM in data set [1] worked out at 2%. Besides, the “AD38 Viability Normalized Result (CPAM/DMSO %) at 10 μM” value in data set [2] is 106%.
`O=C(NCCCc1ccccc1)c1ccc2c(c1)NC(=O)c1ccccc1S2` [Compound 1108]: the activity at 10 µM in data set [1] amounted to 1%. Besides, the “AD38 Viability Normalized Result (CPAM/DMSO %) at 10 μM” value in data set [2] was determined as 105%.
On the same counts, the results for `O=C(NCCCCc1ccccc1)c1ccc2c(c1)NC(=O)c1ccccc1S2` [Compound 1109] are 6% and 99%.
Take `O=C(NCCc1ccc2ccccc2c1)c1ccc2c(c1)NC(=O)c1ccccc1S2` [Compound 1110]: in data set [1], the activity at 10 µM was 2%. The “AD38 Viability Normalized Result (CPAM/DMSO %) at 10 μM” value in data set [2] turned out to be 119%.
Taken in the same sequence, the figures for `O=C(NCCc1ccc(-c2ccccc2)cc1)c1ccc2c(c1)NC(=O)c1ccccc1S2` [Compound 1111] were 2% and 89%.
Take `O=C(NCc1ccc(-c2ccccc2)cc1)c1ccc2c(c1)NC(=O)c1ccccc1S2` [Compound 1112]: the activity at 10 µM in data set [1] is 4%. In addition, the “AD38 Viability Normalized Result (CPAM/DMSO %) at 10 μM” value in data set [2] was determined as 73%.
Taken in the same sequence, the figures for `O=C(NCCc1ccc(F)cc1)c1ccc2c(c1)NC(=O)c1ccccc1S2` [Compound 1113] were 1% and 99%.
In the case of `COc1ccc(CCNC(=O)c2ccc3c(c2)NC(=O)c2ccccc2S3)cc1` [Compound 1114], the activity at 10 µM in data set [1] came to 1%. Further, the “AD38 Viability Normalized Result (CPAM/DMSO %) at 10 μM” value in data set [2] amounted to 104%.
`O=C(NCCc1ccc(O)cc1)c1ccc2c(c1)NC(=O)c1ccccc1S2` [Compound 1115]: the activity at 10 µM in data set [1] turned out to be 1%. Further, in data set [2], the “AD38 Viability Normalized Result (CPAM/DMSO %) at 10 μM” value worked out at 106%.
For the compound `COC(=O)c1ccc(CCNC(=O)c2ccc3c(c2)NC(=O)c2ccccc2S3)cc1` [Compound 1117], in data set [1], the activity at 10 µM is 67%. Besides, in data set [2], the “AD38 Viability Normalized Result (CPAM/DMSO %) at 10 μM” value was 108%.
With `O=C(NCCc1cccc(O)c1)c1ccc2c(c1)NC(=O)c1ccccc1S2` [Compound 1118], in data set [1], the activity at 10 µM was determined as 61%. For the same compound, in data set [2], the “AD38 Viability Normalized Result (CPAM/DMSO %) at 10 μM” value was determined as 95%.
Turning to `N#Cc1ccc(CCNC(=O)c2ccc3c(c2)NC(=O)c2ccccc2S3)cc1` [Compound 1120], the activity at 10 µM in data set [1] is 7%. In addition, the “AD38 Viability Normalized Result (CPAM/DMSO %) at 10 μM” value in data set [2] is 94%.
Take `O=C(NCCc1ccc(N2CCCCC2)cc1)c1ccc2c(c1)NC(=O)c1ccccc1S2` [Compound 1121]: the activity at 10 µM in data set [1] came out at 6%. Besides, the “AD38 Viability Normalized Result (CPAM/DMSO %) at 10 μM” value in data set [2] was 109%.
For `O=C(NCCc1ccc(Br)cc1)c1ccc2c(c1)NC(=O)c1ccccc1S2` [Compound 1122], the activity at 10 µM in data set [1] amounted to 21%. In addition, in data set [2], the “AD38 Viability Normalized Result (CPAM/DMSO %) at 10 μM” value amounted to 86%.
Turning to `CCCCNC(=O)c1ccc2c(c1)NC(=O)c1ccccc1S2` [Compound 1123], in data set [1], the activity at 10 µM was 62%. Further, in data set [2], the “AD38 Viability Normalized Result (CPAM/DMSO %) at 10 μM” value is reported as 95%.
Consider `COc1cccc(CCNC(=O)c2ccc3c(c2)NC(=O)c2ccccc2S3)c1` [Compound 1124], for which the activity at 10 µM in data set [1] turned out to be 80%. Moreover, the “AD38 Viability Normalized Result (CPAM/DMSO %) at 10 μM” value in data set [2] worked out at 99%.
Consider `COc1ccc(CCNC(=O)c2ccc3c(c2)NC(=O)c2ccccc2S3)cc1OC` [Compound 1125], for which the activity at 10 µM in data set [1] turned out to be 20%. For the same compound, in data set [2], the “AD38 Viability Normalized Result (CPAM/DMSO %) at 10 μM” value stood at 108%.
For the compound `COc1ccccc1CCNC(=O)c1ccc2c(c1)NC(=O)c1ccccc1S2` [Compound 1127], in data set [1], the activity at 10 µM stood at 22%. In addition, the “AD38 Viability Normalized Result (CPAM/DMSO %) at 10 μM” value in data set [2] came out at 94%.
Taken in the same sequence, the figures for `O=C(NCCc1cccc(F)c1)c1ccc2c(c1)NC(=O)c1ccccc1S2` [Compound 1130] were 2% and 101%.
Taken in the same sequence, the figures for `CN1C(=O)c2ccccc2Sc2ccc(C(=O)NCCc3cccc(O)c3)cc21` [Compound 1133] were 94% and 99%.
With `O=C(NCCCCc1ccncc1)c1ccc2c(c1)NC(=O)c1ccccc1S2` [Compound 1149], the activity at 10 µM in data set [1] worked out at 5%. Moreover, the “AD38 Viability Normalized Result (CPAM/DMSO %) at 10 μM” value in data set [2] is recorded as 118%.
Take `O=C(NCCCCC1CCCCC1)c1ccc2c(c1)NC(=O)c1ccccc1S2` [Compound 1150]: the activity at 10 µM in data set [1] was 1%. Also, the “AD38 Viability Normalized Result (CPAM/DMSO %) at 10 μM” value in data set [2] is given as 22%.
Consider `CCCCCCNC(=O)c1ccc2c(c1)NC(=O)c1ccccc1S2` [Compound 1151], for which, in data set [1], the activity at 10 µM worked out at 1%. Further, the “AD38 Viability Normalized Result (CPAM/DMSO %) at 10 μM” value in data set [2] is recorded as 50%.
Taken in the same sequence, the figures for `CCCCCCCCNC(=O)c1ccc2c(c1)NC(=O)c1ccccc1S2` [Compound 1152] were 1% and 45%.
As to `CN(C)CCOc1ccc(CCNC(=O)c2ccc3c(c2)NC(=O)c2ccccc2S3)cc1` [Compound 1154], the activity at 10 µM in data set [1] is 90%. Besides, the “AD38 Viability Normalized Result (CPAM/DMSO %) at 10 μM” value in data set [2] worked out at 50%.
As to `CN(C)CCCOc1ccc(CCNC(=O)c2ccc3c(c2)NC(=O)c2ccccc2S3)cc1.Cl` [Compound 1155], in data set [1], the activity at 10 µM is 18%. Besides, the “AD38 Viability Normalized Result (CPAM/DMSO %) at 10 μM” value in data set [2] is given as 103%.
In the case of `CCOc1ccccc1CCNC(=O)c1ccc2c(c1)NC(=O)c1ccccc1S2` [Compound 1156], the activity at 10 µM in data set [1] came to 16%. The “AD38 Viability Normalized Result (CPAM/DMSO %) at 10 μM” value in data set [2] is given as 106%.
Taken in the same sequence, the figures for `CCOc1cccc(CCNC(=O)c2ccc3c(c2)NC(=O)c2ccccc2S3)c1` [Compound 1157] were 1% and 48%.
Regarding `Cc1ccccc1CCNC(=O)c1ccc2c(c1)NC(=O)c1ccccc1S2` [Compound 1158], the activity at 10 µM in data set [1] was determined as 37%. In data set [2], the “AD38 Viability Normalized Result (CPAM/DMSO %) at 10 μM” value amounted to 120%.
For the compound `COc1ccccc1CNC(=O)c1ccc2c(c1)NC(=O)c1ccccc1S2` [Compound 1159], in data set [1], the activity at 10 µM came out at 8%. In addition, the “AD38 Viability Normalized Result (CPAM/DMSO %) at 10 μM” value in data set [2] is given as 92%.
Taken in the same sequence, the figures for `COc1cccc(CNC(=O)c2ccc3c(c2)NC(=O)c2ccccc2S3)c1` [Compound 1160] were 2% and 105%.
In the case of `COc1ccc(CNC(=O)c2ccc3c(c2)NC(=O)c2ccccc2S3)cc1` [Compound 1161], the activity at 10 µM in data set [1] was found to be 1%. In addition, in data set [2], the “AD38 Viability Normalized Result (CPAM/DMSO %) at 10 μM” value worked out at 99%.
As for `O=C(NCc1ccc(OC(F)(F)F)cc1)c1ccc2c(c1)NC(=O)c1ccccc1S2` [Compound 1162], the activity at 10 µM in data set [1] stood at 61%. Further, in data set [2], the “AD38 Viability Normalized Result (CPAM/DMSO %) at 10 μM” value is on record as 99%.
For the compound `Cc1cccc(CNC(=O)c2ccc3c(c2)NC(=O)c2ccccc2S3)c1` [Compound 1163], the activity at 10 µM in data set [1] turned out to be 3%. Further, the “AD38 Viability Normalized Result (CPAM/DMSO %) at 10 μM” value in data set [2] is 104%.
In the case of `Cc1ccc(CNC(=O)c2ccc3c(c2)NC(=O)c2ccccc2S3)cc1` [Compound 1164], the activity at 10 µM in data set [1] was 27%. Further, in data set [2], the “AD38 Viability Normalized Result (CPAM/DMSO %) at 10 μM” value came to 103%.
Taken in the same sequence, the figures for `CC(C)(C)c1ccc(CNC(=O)c2ccc3c(c2)NC(=O)c2ccccc2S3)cc1` [Compound 1165] were 5% and 82%.
As to `O=C(NCc1cccc(C(F)(F)F)c1)c1ccc2c(c1)NC(=O)c1ccccc1S2` [Compound 1166], in data set [1], the activity at 10 µM stood at 10%. In data set [2], the “AD38 Viability Normalized Result (CPAM/DMSO %) at 10 μM” value turned out to be 119%.
